How the values were obtained:
[1] = tested on: T1, oxidase I (laccase-like oxidase I of C. geniculata VKM F-3561); assay: spectrophotometric oxidation assay; type: biochemical, Curvularia geniculata; conditions: apparent, error < 10%
T1 construct: native, purified from culture liquid; glycosylated oligomer about 1035 kDa, subunit about 63 kDa deglycosylated
Text: spectrophotometric oxidation assay on oxidase I (laccase-like oxidase I of C. geniculata VKM F-3561)

[2] = tested on: T2, oxidase II (laccase-like oxidase II of C. geniculata VKM F-3561); assay: spectrophotometric oxidation assay; type: biochemical, Curvularia geniculata; conditions: apparent, error < 10%
T2 construct: native, purified from culture liquid; glycosylated oligomer about 870 kDa, subunit about 63 kDa deglycosylated
Text: spectrophotometric oxidation assay on oxidase II (laccase-like oxidase II of C. geniculata VKM F-3561)

Row | SMILES | Km ([1]; 50 mM Tris-HCl buffer pH 7.2) [µM] | Km ([2]; 50 mM Tris-HCl buffer pH 7.2) [µM] | Km ([1]; 20 mM Na-acetate buffer pH 5.0) [µM] | Km ([2]; 20 mM Na-acetate buffer pH 5.0) [µM]
1 | COc1cccc(OC)c1O [2,6-dimethoxyphenol] | 26 | 108 |  | 
2 | CCn1c(=NN=c2sc3cc(S(=O)(=O)O)ccc3n2CC)sc2cc(S(=O)(=O)O)ccc21 [ABTS, 2,2′-azino-bis(3-ethylbenzothiazoline 6-sulfonic acid)] |  |  | 280 | 152
3 | COc1cc(/C=C/CO)ccc1O [coniferyl alcohol] | 130 | 125 |  | 
4 | COc1cc(/C=C/C(=O)O)ccc1O [ferulic acid] | 37.6 | 51 |  | 
5 | COc1cc(C=NN=Cc2cc(OC)c(O)c(OC)c2)cc(OC)c1O [syringaldazine, 4-hydroxy-3,5-dimethoxybenzaldehyde azine] | 2.3 | 46 |  | 

— article PMC10673308, “Unusual Oligomeric Laccase-like Oxidases from Ascomycete Curvularia geniculata VKM F-3561 Polymerizing Phenylpropanoids and Phenolic Compounds under Neutral Environmental Conditions” (Microorganisms, 2023)
